pIC50: −log10 of the molar value.
How the values were obtained:
pERK in NCI-H358 cells = experiment: Cell-based pERK HTRF assay (pERK inhibition in H358 cells); conditions: 30 min incubation
Method in brief: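 NCI-H358 cells were seeded at 4×10^4 cells/well in RPMI/10% FBS, then treated next day for 30 min at 0.25% DMSO (9-point, 3-fold series from 75 μM). Lysates were read by HTRF (d2/Eu cryptate antibody pair, 615 nm emission) after 4–24 h at room temperature to give pERK IC50.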

[1] = biological target: T1, GppNHp-loaded KRAS4b (amino acids 1-169) G12C/C118S protein (Homo sapiens, UniProt P01116, C118S/G12C); experiment: Covalent cysteine 12 modification by MALDI-TOF MS, GppNHp-loaded KRAS G12C; assay type: binding; conditions: 15 minutes reaction time point
T1 construct: KRAS4b (amino acids 1-169) G12C/C118S protein; made in house
Method in brief: (§1)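 Covalent labelling is scored at 15 min by MALDI-TOF mass spectrometry, using 1 μM protein with compound at a 1:2.5 protein-to-compound ratio at room temperature.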

[2] = biological target: T2, GDP-loaded KRAS4b (amino acids 1-169) G12C/C118S protein (Homo sapiens, UniProt P01116, C118S/G12C); experiment: Covalent cysteine 12 modification by MALDI-TOF MS, GDP-loaded KRAS G12C; assay type: binding; conditions: 15 minutes reaction time point
T2 construct: KRAS4b (amino acids 1-169) G12C/C118S protein; made in house
Method in brief: as §1

[3] = biological target: T3, GTP-loaded KRAS4b (amino acids 1-169) G12C/C118S protein (Homo sapiens, UniProt P01116, C118S/G12C); experiment: Covalent cysteine 12 modification by MALDI-TOF MS, GTP-loaded KRAS G12C; assay type: binding; conditions: 15 minutes reaction time point
T3 construct: KRAS4b (amino acids 1-169) G12C/C118S protein; made in house
Method in brief: as §1

SMILES | pIC50 (pERK in NCI-H358 cells; Homo sapiens, NCI-H358, 0.5 h) | GppNHp-KRAS G12C percent of modification [1] | GDP-KRAS G12C percent of modification [2] | GTP-KRAS G12C percent of modification [3] | pIC50 (pERK in NCI-H358 cells)
C=CC(=O)N1C2CCC1CN(c1nc(OC[C@@]34CCCN3C[C@H](F)C4)nc3c(F)c(-c4ccc(F)c5sc(N)c(C#N)c45)c(C(F)(F)F)cc13)C2 [Compound 34] | > 7.00 | C (10%≤percent of modification <50%) | B (50≤percent of modification <70%) | D (percent of modification <10%) | 
C=CC(=O)N1C[C@H](N(C)c2nc(OC[C@@]34CCCN3C[C@H](F)C4)nc3c(F)c(-c4ccc(F)c5sc(N)c(C#N)c45)c(C(F)(F)F)cc23)C[C@H]1C (atropisomer, axis not shown) [Compound 177] |  | D (percent of modification <10%) | D (percent of modification <10%) | D (percent of modification <10%) | 6.00 to 7.00
C=CC(=O)N1CC[C@@H](N(CC)c2nc(OC[C@@H]3CC4(CC4)CN3C)nc3c(F)c(-c4ccc(F)c5sc(N)c(C#N)c45)c(Cl)cc23)[C@H]1C (atropisomer, axis not shown) [Compound 120] |  | A (percent of modification ≥70%) | A (percent of modification ≥70%) | A (percent of modification ≥70%) | > 7.00
C=CC(=O)N1C[C@H](N(C)c2nc(OC[C@@H]3CCCN3C)nc3c(F)c(-c4ccc(F)c5sc(N)c(C#N)c45)c(C(F)(F)F)cc23)C[C@@H]1C [Compound 153] | > 7.00 | A (percent of modification ≥70%) | A (percent of modification ≥70%) | A (percent of modification ≥70%) | 
C=CC(=O)N1CC[C@@H](N(CC)c2nc(OC[C@]34CCCN3C[C@H](F)C4)nc3c(F)c(-c4ccc(F)c5sc(N)c(C#N)c45)c(C(F)(F)F)cc23)[C@H]1C [Compound 159] | > 7.00 | A (percent of modification ≥70%) | A (percent of modification ≥70%) | B (50≤percent of modification <70%) | 
C=CC(=O)N1CC[C@@H](N(CC)c2nc(OC[C@@H]3CCCN3C)nc3cc(-c4ccc(F)c5sc(N)c(C#N)c45)c(F)cc23)[C@H]1C [Compound 138] | > 7.00 | A (percent of modification ≥70%) | A (percent of modification ≥70%) | A (percent of modification ≥70%) | 
C=CC(=O)N1CCC(N(CC)c2nc(OC[C@@]34CCCN3C[C@H](F)C4)nc3cc(-c4ccc(F)c5sc(N)c(C#N)c45)c(C#N)cc23)[C@H]1CC (stereo partly drawn) [Compound 14] | 6.00 to 7.00 | A (percent of modification ≥70%) | A (percent of modification ≥70%) | B (50≤percent of modification <70%) | 
C=CC(=O)N1CC[C@@H](N(CC)c2nc(OC[C@@H]3C[C@@H](OC)CN3C)nc3c(F)c(-c4ccc(F)c5sc(N)c(C#N)c45)c(C(F)(F)F)cc23)[C@H]1C (single isomer, unassigned) [Compound 117] |  | D (percent of modification <10%) | D (percent of modification <10%) | D (percent of modification <10%) | < 6.00
C=CC(=O)N1CC[C@@H](N(C)c2nc(OC[C@@H]3C[C@@H](OC)CN3C)nc3c(F)c(-c4ccc(F)c5sc(N)c(C#N)c45)c(C(F)(F)F)cc23)[C@@H]1C [Compound 33] | > 7.00 | A (percent of modification ≥70%) | B (50≤percent of modification <70%) | B (50≤percent of modification <70%) | 
C=CC(=O)N1CC[C@@H](N(CC)c2nc(OC[C@@H]3C[C@@H](OC)CN3C)nc3c(F)c(-c4ccc(F)c5sc(N)c(C#N)c45)c(C(F)(F)F)cc23)[C@H]1C (single isomer, unassigned) [Compound 116] |  | A (percent of modification ≥70%) | A (percent of modification ≥70%) | A (percent of modification ≥70%) | > 7.00
C=CC(=O)N1CC[C@@H](N(CC)c2nc(OC[C@@H]3CC4(CC4)CN3C)nc3c(F)c(-c4ccc(F)c5sc(N)c(C#N)c45)c(Cl)cc23)[C@H]1C (atropisomer, axis not shown) [Compound 121] |  | D (percent of modification <10%) | D (percent of modification <10%) | D (percent of modification <10%) | < 6.00
C=CC(=O)N1C[C@H](N(C)c2nc(OC[C@@]34CCCN3C[C@H](F)C4)nc3c(F)c(-c4ccc(F)c5sc(N)c(C#N)c45)c(C(F)(F)F)cc23)C[C@@H]1C [Compound 108] | > 7.00 | A (percent of modification ≥70%) | B (50≤percent of modification <70%) | B (50≤percent of modification <70%) | 
C=CC(=O)N1CC[C@@H](N(C)c2nc(OC[C@@]34CCCN3C[C@H](F)C4)nc3cc(-c4ccc(F)c5sc(N)c(C#N)c45)c(F)cc23)[C@@H]1CC [Compound 22] | > 7.00 | D (percent of modification <10%) | A (percent of modification ≥70%) | D (percent of modification <10%) | 
C=CC(=O)N1CC[C@@H](N(C)c2nc(OC[C@@H]3C[C@@H](OC)CN3C)nc3c(F)c(-c4ccc(F)c5sc(N)c(C#N)c45)c(C(F)(F)F)cc23)[C@H]1C (single isomer, unassigned) [Compound 174] |  | D (percent of modification <10%) | D (percent of modification <10%) | D (percent of modification <10%) | 6.00 to 7.00
C=CC(=O)N1CC[C@@H](N(C)c2nc(OC[C@@H]3C[C@@H](OC)CN3C)nc3c(F)c(-c4ccc(F)c5sc(N)c(C#N)c45)c(C(F)(F)F)cc23)[C@H]1C (single isomer, unassigned) [Compound 172] | > 7.00 | A (percent of modification ≥70%) | A (percent of modification ≥70%) | A (percent of modification ≥70%) | 
C=CC(=O)N1CC[C@@H](N(CC)c2nc(OC[C@@H]3C[C@@H](F)CN3C)nc3c(F)c(-c4ccc(F)c5sc(N)c(C#N)c45)ccc23)[C@H]1C [Compound 142] | > 7.00 | A (percent of modification ≥70%) | A (percent of modification ≥70%) | A (percent of modification ≥70%) | 
C=CC(=O)N1CC[C@@H](N(CC)c2nc(OC[C@@]34CCCN3C[C@H](OC)C4)nc3c(F)c(-c4ccc(F)c5sc(N)c(C#N)c45)c(C(F)(F)F)cc23)[C@H]1C [Compound 150] | > 7.00 | A (percent of modification ≥70%) | A (percent of modification ≥70%) | A (percent of modification ≥70%) | 
C=CC(=O)N1CC[C@@H](N(CC)c2nc(OC[C@@H]3C[C@@H](F)CN3C)nc3c(F)c(-c4ccc(F)c5sc(N)c(C#N)c45)c(C(F)(F)F)cc23)[C@H]1C (atropisomer, axis not shown) [Compound 114] |  | D (percent of modification <10%) | D (percent of modification <10%) | D (percent of modification <10%) | < 6.00
C=CC(=O)N1CC[C@@H](N(C)c2nc(OC[C@]34CCCN3C[C@H](OC)C4)nc3c(F)c(-c4ccc(F)c5sc(N)c(C#N)c45)c(C(F)(F)F)cc23)[C@H]1C [Compound 156] | > 7.00 | A (percent of modification ≥70%) | A (percent of modification ≥70%) | A (percent of modification ≥70%) | 
C=CC(=O)N1CC[C@@H](N(CC)c2nc(OC[C@@]34CCCN3C[C@H](OC)C4)nc3c(F)c(-c4ccc(F)c5sc(N)c(C#N)c45)c(Cl)cc23)[C@H]1C [Compound 163] | > 7.00 | A (percent of modification ≥70%) | A (percent of modification ≥70%) | A (percent of modification ≥70%) | 
C=CC(=O)N1CC[C@@H](N(C)c2nc(OC[C@]34CCCN3C[C@H](OC)C4)nc3c(F)c(-c4ccc(F)c5sc(N)c(C#N)c45)c(Cl)cc23)[C@H]1C [Compound 161] | > 7.00 | A (percent of modification ≥70%) | A (percent of modification ≥70%) | A (percent of modification ≥70%) | 
